Source: ChEMBL document CHEMBL1201862, “PubChem BioAssay data set” (2004)
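A five-concentration, 48-hour dose response in 96-well plates underlies each endpoint, interpolated linearly between surrounding concentrations. Abbreviation: GI50, concentration required for 50% inhibition of growth.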 Activity calls are given as the source filed them. Cut-off read from the data, not from the text of the source: active = GI50 up to about 1.1 µM and inactive = higher. Non-standard residues stand in square brackets, D forms with d. Residues, ends and D or L forms follow the SMILES beside them. ξ: configuration not given here. *: point of attachment. dThr(3ξ) = CC(O)[C@@H](N)C(=O)O; dNMeL = CN[C@H](CC(C)C)C(=O)O; OBn = c1ccc(CO*)cc1; ξLac = CC(O)C(=O)O

What was measured:
Test in all cases: DTP human tumour cell line panel, 48 h
BT-549 = test system: BT-549
CAKI-1 = test system: CAKI-1
CCRF-CEM = test system: CCRF-CEM
HT-29 = test system: HT-29
IGROV-1 = test system: IGROV-1
KM12 = test system: KM12
M14 = test system: M14
MDA-MB-231 = test system: MDA-MB-231
Malme-3M = test system: Malme-3M
NCI-H522 = test system: NCI-H522
OVCAR-3 = test system: OVCAR-3
OVCAR-4 = test system: OVCAR-4
RXF 393 = test system: RXF 393
SK-MEL-2 = test system: SK-MEL-2
SK-MEL-5 = test system: SK-MEL-5
SN12C = test system: SN12C
SNB-75 = test system: SNB-75
T47D = test system: T47D
TK-10 = test system: TK-10
UACC-62 = test system: UACC-62

Measured: GI50

O=S(=O)(O)c1cc(S(=O)(=O)O)c2c(/N=N/c3cccc4ccccc34)c(O)ccc2c1
inactive: BT-549 > 100 µM | CAKI-1 > 100 µM | CCRF-CEM > 100 µM | HT-29 > 100 µM | IGROV-1 > 100 µM | KM12 > 100 µM | M14 > 100 µM | MDA-MB-231 > 100 µM | Malme-3M > 100 µM | NCI-H522 > 100 µM | OVCAR-3 > 100 µM | OVCAR-4 > 100 µM | RXF 393 > 100 µM | SK-MEL-2 > 100 µM | SK-MEL-5 > 100 µM | SN12C > 100 µM | SNB-75 > 100 µM | T47D > 100 µM | TK-10 > 100 µM | UACC-62 > 100 µM

CC(=O)OC(C)[C@@H](NC(=O)[C@@H](CC(C)C)N(C)C(=O)[C@@H]1CCCN1C(=O)C(C)O)C(=O)OCc1ccccc1 (stereo not given in full) (H-[ξLac]P[dNMeL][dThr(3ξ)](Ac)-OBn)
inactive: BT-549 > 100 µM | CAKI-1 > 100 µM | CCRF-CEM > 100 µM | HT-29 > 100 µM | IGROV-1 > 100 µM | KM12 > 100 µM | M14 > 100 µM | MDA-MB-231 > 100 µM | Malme-3M > 100 µM | NCI-H522 > 100 µM | OVCAR-3 > 100 µM | OVCAR-4 62.4 µM | RXF 393 > 100 µM | SK-MEL-2 > 100 µM | SK-MEL-5 > 100 µM | SN12C > 100 µM | SNB-75 81.7 µM | T47D > 100 µM | TK-10 > 100 µM | UACC-62 > 100 µM

NCCCCNCCCNC(=O)CNC(=O)CC(O)C(N)CCCC(NC(=O)C(CN)NC(=O)C(O)CNC(=O)CC(N)c1ccc(O)cc1)C(=O)O (stereo not given)
inactive: BT-549 > 10 µM | CAKI-1 > 10 µM | CCRF-CEM > 10 µM | HT-29 > 10 µM | IGROV-1 > 10 µM | KM12 > 10 µM | M14 > 10 µM | MDA-MB-231 > 10 µM | Malme-3M > 10 µM | NCI-H522 > 10 µM | OVCAR-3 > 10 µM | OVCAR-4 > 10 µM | RXF 393 > 10 µM | SK-MEL-2 > 10 µM | SK-MEL-5 > 10 µM | SN12C > 10 µM | SNB-75 > 10 µM | T47D > 10 µM | TK-10 > 10 µM | UACC-62 > 10 µM

CN(C)CCS/C(=N\c1ccccc1)N1C=COC=C1
inactive: BT-549 > 100 µM | CAKI-1 > 33.3 µM | CCRF-CEM > 74.6 µM | HT-29 43.7 µM | IGROV-1 18 µM | KM12 57.4 µM | M14 18 µM | MDA-MB-231 20.9 µM | Malme-3M 33.7 µM | NCI-H522 17.4 µM | OVCAR-3 46 µM | OVCAR-4 > 44.6 µM | RXF 393 26.7 µM | SK-MEL-2 17.3 µM | SK-MEL-5 19.5 µM | SN12C 27.5 µM | SNB-75 > 78.7 µM | T47D 15.3 µM | TK-10 47.5 µM | UACC-62 16 µM
